Four compounds from BindingDB's records for doi:10.1016/j.bmc.2007.10.027 (Research Triangle Institute, 2008) can be followed below.

The structures appear in SMILES notation.

Sequence of Neuronal acetylcholine receptor subunit alpha-4 (P09483 whole entry): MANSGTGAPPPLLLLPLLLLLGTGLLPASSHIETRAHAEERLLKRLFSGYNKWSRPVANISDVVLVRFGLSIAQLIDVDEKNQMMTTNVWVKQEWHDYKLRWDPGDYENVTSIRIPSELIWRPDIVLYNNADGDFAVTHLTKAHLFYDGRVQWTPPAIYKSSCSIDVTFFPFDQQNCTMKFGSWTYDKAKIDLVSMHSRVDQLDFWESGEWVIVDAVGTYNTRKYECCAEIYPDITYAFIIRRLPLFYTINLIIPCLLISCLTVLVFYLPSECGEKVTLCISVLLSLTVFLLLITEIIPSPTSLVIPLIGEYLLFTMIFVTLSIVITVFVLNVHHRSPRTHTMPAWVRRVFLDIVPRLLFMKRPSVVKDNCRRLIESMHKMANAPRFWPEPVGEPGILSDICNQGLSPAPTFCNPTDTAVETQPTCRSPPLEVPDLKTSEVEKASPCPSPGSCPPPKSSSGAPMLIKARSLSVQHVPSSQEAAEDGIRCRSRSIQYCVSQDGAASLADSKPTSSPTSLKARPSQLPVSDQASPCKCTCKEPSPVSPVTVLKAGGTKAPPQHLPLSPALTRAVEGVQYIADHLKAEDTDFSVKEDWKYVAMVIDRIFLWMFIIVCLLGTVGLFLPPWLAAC

This assay concerns the target Neuronal acetylcholine receptor subunit alpha-4 (Rattus norvegicus, UniProt P09483).
With `c1cncc(C2CC3CCC2N3)c1` (centres undefined) [2-(pyridin-3-yl)-7-aza-bicyclo[2.2.1]heptane], the affinity, expressed as Ki, was 20 pM.

Turning to `COc1cccc(-c2cc(C3CC4CCC3N4)cnc2F)c1` (racemic) [CAS_45266054], affinity was put at a Ki of 120 pM.

`Fc1ncc(C2CC3CCC2N3)cc1-c1ccccc1` (centres undefined) [NSC_45263762]: the Ki (usually a measure of affinity in units of concentration, obtained from inhibition or displacement) was found to be 240 pM.

The compound `Nc1cccc(-c2cc(C3CC4CCC3N4)cnc2F)c1` (racemic) [CAS_45263775] showed a Ki of 100 pM.
